Measured values taken from US6342219B1 (Board of Regents, The University of Texas System, priority 1999, dated 2002).

Columns and labels:
[1] = tested on: VEGF alone or VEGF associated with sFlk-1 (VEGF:Flk-1); test: Indirect and capture ELISA: reactivity with VEGF alone or VEGF:Flk-1; assay type: binding, human VEGF; mouse Flk-1
Procedure: The Flk-1/SEAP protein was produced and purified as described by Tessler et al. (1994). Basically, the extracellular domain of Flk-1 (sFlk-1) was produced in Spodoptera frugiperda (Sf9) cells and purified by immunoaffinity techniques utilizing a monoclonal anti-Flk-1 antibody (1A8). sFlk-1 was then biotinylated and bound on avidin-coated plates.
The reactivity was determined as described above for the initial screening.
A capture ELISA was also developed. In the capture ELISA, microtiter plates were coated overnight at 4° C. with 100 ng of the indicated antibody. […] Streptavidin conjugated to peroxidase (Kirkegaard & Perry Laboratories, Inc.), diluted 1:2000, was used as a second layer and developed.

[2] = tested on: denatured VEGF121 and VEGF165; test: Western blot analysis; assay type: binding, human; details: reducing and non-reducing conditions
denatured VEGF121 and VEGF165, sequence (P15692 207-320 limits assumed): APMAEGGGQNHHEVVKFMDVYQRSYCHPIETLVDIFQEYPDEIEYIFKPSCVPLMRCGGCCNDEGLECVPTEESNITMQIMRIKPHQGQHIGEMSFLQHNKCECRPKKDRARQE
Procedure: The nitrocellulose membrane was blocked using Sea-Block PP82-41 (East Coast Biologics, Berwick, Me.), and probed with primary antibodies using a mini-blotter apparatus (Immunetics, Cambridge, Mass.). The membranes were developed after incubation with the appropriate peroxidase-conjugated secondary antibody by ECL enhanced chemiluminescence.
Western blot analyses of anti-VEGF antibodies were conducted by separating VEGF165 in the presence of 5% FCS using SDS-PAGE on a 12% gel and analyzing by a standard western blotting protocol using ECL detection. The primary antibodies were incubated with the nitrocellulose membrane using a multi-lane mini-blotter apparatus.

[3] = tested on: NCI-H358 NSCLC and HT29 colon adenocarcinoma xenografts and normal organs; test: In vivo localization to human tumor xenografts in mice; set-up: species or system mouse; key to Immunohistochemical Reactivity, Heart / Immunohistochemical Reactivity, Lung / Immunohistochemical Reactivity, Liver / Immunohistochemical Reactivity, Kidney / Immunohistochemical Reactivity, Intestine / Immunohistochemical Reactivity, Spleen / Immunohistochemical Reactivity, Tumor: −, negative; +/−, very weak; 1+, weak; 2+, moderate; 3+, strong; 4+, very strong
Procedure: Tumors were grown subcutaneously in immunocompromised mice (NCI-H358 NSCLC in nu/nu mice and HT29 colon adenocarcinoma in SCID mice) until the tumor volume was approximately 1 cm^3. 100μg of unlabeled antibody for studies using SCID mice, or 100 μg of biotinylated antibody for studies using nude mice, was injected intravenously via a tail vein. Twenty four hours later, the mice were anesthetized, perfused with PBS, and tumor and organs including heart, lungs, liver, kidneys, intestines and spleen were collected and snap frozen in liquid nitrogen.
The tumor and organs from each mouse were sectioned on a cryostat and stained for antibody immunohistochemically as above, with the exception that sections from the nude mice were developed using peroxidase labeled streptavidin-biotin complex (Dako, Carpinteria, Calif.) and the sections from the SCID mice were developed using two peroxidase-conjugated secondary antibodies, a goat anti-mouse IgG+IgM followed by a rabbit anti-goat Ig.
Twenty-four hours later, the mice were sacrificed, exsanguinated and the tumors and tissues were removed.

[4] = tested on: VEGFR2 (sFlk-1); test: ELISA of VEGF binding to VEGFR2-coated wells; set-up: species or system mouse
Procedure: (§1) FIG. 2. […] The plate was then incubated with rabbit anti-VEGF (A-20, Santa Cruz Biotechnology, Inc.) at 1 μg/ml and developed using a peroxidase conjugated goat anti-rabbit antibody. Assays were performed in triplicate. Mean percent binding in the absence of antibody is shown, together with the standard deviation.
(§2) The assay was also performed by coating wells of a microtiter plate with either control or test IgG.

[5] = tested on: VEGFR1 (Flt-1/Fc); test: ELISA of VEGF binding to VEGFR1-coated wells
Procedure: as §1, §2

[6] = tested on: NCI-H358 NSCLC; test: In vivo tumor growth inhibition, newly implanted NCI-H358; set-up: species or system nu/nu mice
Procedure: (§3) FIG. 3A and FIG. 3B. […] FIG. 3A: 1×10^7 NCI-H358 NSCLC cells were injected subcutaneously into nu/nu mice on day 0. FIG. 3B: 5×10^6 A673 rhabdomyosarcoma cells were injected subcutaneously into nu/nu mice on day 0. Mice were injected i.p. with the indicated IgG on day 1 and 2 times/week thereafter. […] Tumors were measured 2-3 times per week. Mean and standard error is shown for the duration of the study in FIG. 3A, while data for the last day of the study (day 26) is shown in FIG. 3B.
(§4) Nu/nu mice were injected subcutaneously with either 1×10^7 NCI-H358 NSCLC cells or 5×10^6 A673 rhabdomyosarcoma cells on day 0. […] The tumors were then measured twice per wk for a period of approximately six wk for the NCI-H358 bearing mice and four wk for the A673 bearing mice. Tumor volume was calculated according to the formula: volume=L×W×H, where L=length, W=width, H=height.

[7] = tested on: A673 rhabdomyosarcoma; test: In vivo tumor growth inhibition, newly implanted A673; set-up: species or system nu/nu mice
Procedure: as §3, §4

[8] = tested on: NCI-H358 NSCLC tumors; test: Treatment of established NCI-H358 xenografts (FIG. 4); assay type: in vivo, nu/nu mice; details: 50-100 μg i.p. every 3-5 days, approximately 10 weeks
Procedure: FIG. 4. […] Mean tumor volume along with the SEM over 116 days is shown.
Male nu/nu mice bearing subcutaneous NCI-H358 tumors or HT1080 fibrosarcoma 200-400 mm^3 in size were injected i.p. with test or control antibodies. The NCI-H358 bearing mice were treated with 100 μg of antibodies per injection three times a week during the first week and twice a week during the second and third week. The mice were then switched to 50 μg per injection every five days. The HT1080 bearing mice were treated with 100 μg of the indicated antibody or saline every other day throughout the duration of the study. In both studies, mice were sacrificed when their tumors reached 2500 mm^3 in size or earlier if tumors began to ulcerate.
Doses were 50-100 μg every 3-5 days. […] In addition to measuring mean tumor volume (FIG. 4), photographs of the mice from each treatment group were also taken to show the differences in tumor size and appearance at the end of the study.

[9] = tested on: A673 rhabdomyosarcoma; test: Treatment of established A673 tumors; set-up: species or system mice; details: mouse, in vivo
[10] = tested on: LS174T colon adenocarcinoma; test: Treatment of established LS174T tumors; set-up: species or system mice; details: mouse, in vivo
[11] = 24 hours after i.v. antibody, 2C3 in NCI-H358 nu/nu mice, 3E7 and GV39M in HT29 SCID mice
[12] = 100 μg i.p. 2 times per wk from day 1, controls approximately 1000 mm^3

VEGF alone or VEGF associated with sFlk-1 (VEGF:Flk-1), sequence (P15692 27-191 isoform P15692-4 limits assumed): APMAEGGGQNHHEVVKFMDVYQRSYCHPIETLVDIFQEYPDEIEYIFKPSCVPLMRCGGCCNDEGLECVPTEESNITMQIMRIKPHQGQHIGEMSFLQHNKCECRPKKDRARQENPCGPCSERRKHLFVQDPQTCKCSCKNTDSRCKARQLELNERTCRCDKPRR

Substance: 2C3: anti-VEGF monoclonal antibody, IgG2a, k, produced by hybridoma ATCC PTA 1595; blocks VEGF binding to VEGFR2 but not VEGFR1 [Clone 2C3]
- Predominant Reactivity [1]: VEGF
- Reactivity with denatured VEGF on western blots [2]: react
- Immunohistochemical Reactivity, Heart [3, 11]: −
- Immunohistochemical Reactivity, Intestine [3, 11]: −
- Immunohistochemical Reactivity, Kidney [3, 11]: −
- Immunohistochemical Reactivity, Liver [3, 11]: −
- Immunohistochemical Reactivity, Lung [3, 11]: −
- Immunohistochemical Reactivity, Spleen [3, 11]: −
- Immunohistochemical Reactivity, Tumor ([3]; 24 hours after i.v. antibody, 3E7 and GV39M bound tumor vascular endothelium, 2C3 tumor stroma): 3+
- In vivo tumor localization pattern ([3]; CT = connective tissue, BV = blood vessels): Moderate to strong
- In vivo localization in the HT29 human tumor model ([3]; HT29): localized strongly to the connective tissue
- In vivo normal mouse tissue localization ([3]; mouse, in vivo): None detectable
- Blocks VEGF from binding to VEGFR2 [4]: Yes
- Effect on VEGF binding to VEGFR2 in ELISA ([4]; 100-1000 fold excess): blocked
- Reduction in VEGF binding to VEGFR2 ([4]; 100 fold molar excess over VEGF): about 74%
- VEGF bound to VEGFR2-coated wells, of the amount bound in the absence of antibody ([4]; 1000-fold molar excess over VEGF (1 nM VEGF)): ~19%
- Reduction in VEGF binding to VEGFR2 ([4]; 1000 fold molar excess over VEGF): about 81%
- Blocks VEGF from binding to VEGFR1 [5]: No
- Tumor growth retardation in the NCI-H358 tumor model at the lower dose ([6]; 10 μg dose): less marked
- Final tumor volume, NCI-H358 [6, 12]: approximately 150 mm^3
- Final tumor volume, A673 [7, 12]: approximately 150 mm^3
- Effect of lower doses on the growth of A673 tumors ([7]; 10 or 1 μg twice per wk): did slow the growth
- Mean tumor volume at the end of the study, of the initial mean tumor volume [8]: 30%
- Effect on growth of established A673 tumors [9]: significantly slowed the growth
- Effect on growth of established LS174T tumors [10]: significantly slowed the growth
